Measurements taken from patent EP3046573B1, “AMYLIN ANALOGUES” (Zealand Pharma A/S, priority 2013, dated 2015).
Numbered stars: 1 amine (or outer) side, 2 acyl side, 3 side chain; on linkers, the order of the positions; unused ones are H or OH. Bridge positions count the residues as written; N and C are the ends. Square brackets hold non-standard residues; d marks the D form. Peptide text beside a SMILES is read from it. * marks the point of attachment. C20 diacid = O=C(O)CCCCCCCCCCCCCCCCCCC(=O)*; C18 diacid = O=C(O)CCCCCCCCCCCCCCCCC(=O)*; γGlu = O=C(O)[C@H](CCC(=O)[*:2])N[*:1]; NMeI = CC[C@H](C)[C@H](NC)C(=O)O; Sar = CNCC(=O)O

What was measured:
[1] = target: T1, human calcitonin receptor (hCTR2) (Homo sapiens, UniProt P30988); assay: hCTR2 assay: induction of cAMP (AlphaScreen cAMP Assay kit) in COS7 cells expressing hCTR2; format: cell-based
T1 construct: expressed in transfected cells
T1 sequence (P30988 25-474): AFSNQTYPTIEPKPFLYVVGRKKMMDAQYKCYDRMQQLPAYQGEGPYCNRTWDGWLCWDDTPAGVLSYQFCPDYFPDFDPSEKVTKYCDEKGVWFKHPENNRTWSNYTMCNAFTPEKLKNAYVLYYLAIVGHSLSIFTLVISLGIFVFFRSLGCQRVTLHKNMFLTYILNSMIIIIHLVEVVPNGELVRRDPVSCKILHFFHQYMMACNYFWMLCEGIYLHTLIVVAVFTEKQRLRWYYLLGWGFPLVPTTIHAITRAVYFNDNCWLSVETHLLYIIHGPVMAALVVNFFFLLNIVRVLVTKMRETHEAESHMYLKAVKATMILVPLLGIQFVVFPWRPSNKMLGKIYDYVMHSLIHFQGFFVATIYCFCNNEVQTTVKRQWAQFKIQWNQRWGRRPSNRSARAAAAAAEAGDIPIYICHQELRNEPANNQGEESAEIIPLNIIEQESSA
Summary of the method: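 Cells were seeded one day ahead, washed, then exposed to rising peptide concentrations for 15 min at 37° C in the presence of 100 µM IBMX. After lysis for 10 min at room temperature, cAMP was quantified by AlphaScreen and EC50 values derived by 4PL fitting.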

[2] = Solubility assessment (turbidity absorbance at 325 nm); format: physicochemical; settings: stock 2 mg/ml diluted 1:1, ambient temperature (typically 25°C), n=1; for Solubility, Acetate buffer pH 4: 100 mM acetate buffer pH 4.0; for Solubility, Acetate buffer pH 5: 100 mM acetate buffer pH 5.0; for Solubility, Histidine buffer pH 6: 100 mM histidine buffer pH 6.0; for Solubility, Histidine buffer pH 7: 100 mM histidine buffer pH 7.0; for Solubility, Phosphate buffer pH 6: 100 mM phosphate buffer pH 6.0; for Solubility, Phosphate buffer pH 7: 100 mM phosphate buffer pH 7.0; for Solubility, Phosphate buffer pH 7.5: 100 mM phosphate buffer pH7.5
Summary of the method: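 Turbidimetric screen across pH 4.0–7.5 in 100 mM acetate, histidine and phosphate buffers. A 2 mg/ml peptide stock (pH 2.5) was diluted 1:1 into each, then A325 measured at ambient temperature; values ≤ 0.02 AU denoted solubility of 1 mg/ml or more.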

Compound	EC50 [1]	Solubility, Acetate buffer pH 4 [2]	Solubility, Acetate buffer pH 5 [2]	Solubility, Histidine buffer pH 6 [2]	Solubility, Histidine buffer pH 7 [2]	Solubility, Phosphate buffer pH 6 [2]	Solubility, Phosphate buffer pH 7 [2]	Solubility, Phosphate buffer pH 7.5 [2]
CC[C@H](C)[C@@H](C(=O)N[C@@H](CC(C)C)C(=O)N[C@@H](CO)C(=O)N[C@@H](CO)C(=O)N[C@H](C(=O)N[C@@H](CC(N)=O)C(=O)N[C@H](C(=O)NCC(=O)N[C@@H](CO)C(=O)N[C@@H](CC(N)=O)C(=O)N[C@H](C(=O)N1CCC[C@H]1C(N)=O)[C@@H](C)O)C(C)C)[C@@H](C)O)N(C)C(=O)[C@H](C)NC(=O)CN(C)C(=O)[C@H](Cc1ccccc1)NC(=O)[C@H](CC(N)=O)NC(=O)[C@H](CC(N)=O)NC(=O)[C@H](CO)NC(=O)[C@H](CO)NC(=O)[C@H](CCCNC(=N)N)NC(=O)[C@H](Cc1c[nH]cn1)NC(=O)[C@H](CC(C)C)NC(=O)[C@H](Cc1ccccc1)NC(=O)[C@H](CCC(=O)O)NC(=O)[C@H](C)NC(=O)[C@H](CC(C)C)NC(=O)[C@H](CCCNC(=N)N)NC(=O)[C@H](CCC(N)=O)NC(=O)[C@@H](NC(=O)[C@H](C)NC(=O)[C@@H]1CSSC[C@H](NC(=O)[C@H](CCCCN)NC(=O)[C@H](CCCNC(=N)N)NC(=O)CC[C@H](NC(=O)CCCCCCCCCCCCCCCCCCC(=O)O)C(=O)O)C(=O)N[C@@H](CC(N)=O)C(=O)N[C@@H]([C@@H](C)O)C(=O)N[C@@H](C)C(=O)N[C@@H]([C@@H](C)O)C(=O)N1)[C@@H](C)O [Compound 86, [19CD]-isoGlu-RKC()NTATC()ATQRLAEFLHRSSNNF-Gly(Me)-A-Ile(Me)-LSSTNVGSNTP-NH2] ({C20 diacid-γGlu}-RKCNTATCATQRLAEFLHRSSNNF[Sar]A[NMeI]LSSTNVGSNTP-NH2; disulfide 3-8)	0.065 nM	SS (SS indicates solubility ≥ 1mg/ml)	SS (SS indicates solubility ≥ 1mg/ml)	SS (SS indicates solubility ≥ 1mg/ml)	SS (SS indicates solubility ≥ 1mg/ml)	SS (SS indicates solubility ≥ 1mg/ml)	SS (SS indicates solubility ≥ 1mg/ml)	SS (SS indicates solubility ≥ 1mg/ml)
CC[C@H](C)[C@@H](C(=O)N[C@@H](CC(C)C)C(=O)N[C@@H](CO)C(=O)N[C@@H](CO)C(=O)N[C@H](C(=O)N[C@@H](CC(N)=O)C(=O)N[C@H](C(=O)NCC(=O)N[C@@H](CO)C(=O)N[C@@H](CC(N)=O)C(=O)N[C@H](C(=O)N1CCC[C@H]1C(N)=O)[C@@H](C)O)C(C)C)[C@@H](C)O)N(C)C(=O)[C@H](C)NC(=O)CN(C)C(=O)[C@H](Cc1ccccc1)NC(=O)[C@H](CC(N)=O)NC(=O)[C@H](CC(N)=O)NC(=O)[C@H](CO)NC(=O)[C@H](CO)NC(=O)[C@H](CCCNC(=N)N)NC(=O)[C@H](Cc1c[nH]cn1)NC(=O)[C@H](CC(C)C)NC(=O)[C@H](Cc1ccccc1)NC(=O)[C@H](CCC(=O)O)NC(=O)[C@H](C)NC(=O)[C@H](CC(C)C)NC(=O)[C@H](CCCNC(=N)N)NC(=O)[C@H](CCC(N)=O)NC(=O)[C@@H](NC(=O)[C@H](C)NC(=O)[C@@H]1CSSC[C@H](NC(=O)[C@H](CCCCN)NC(=O)[C@H](Cc2c[nH]cn2)NC(=O)CC[C@H](NC(=O)CCCCCCCCCCCCCCCCCCC(=O)O)C(=O)O)C(=O)N[C@@H](CC(N)=O)C(=O)N[C@@H]([C@@H](C)O)C(=O)N[C@@H](C)C(=O)N[C@@H]([C@@H](C)O)C(=O)N1)[C@@H](C)O [Compound 88, [19CD]-isoGlu-HKC()NTATC()ATQRLAEFLHRSSNNF-Gly(Me)-A-Ile(Me)-LSSTNVGSNTP-NH2] ({C20 diacid-γGlu}-HKCNTATCATQRLAEFLHRSSNNF[Sar]A[NMeI]LSSTNVGSNTP-NH2; disulfide 3-8)	0.069 nM	SS (SS indicates solubility ≥ 1mg/ml)	SS (SS indicates solubility ≥ 1mg/ml)	SS (SS indicates solubility ≥ 1mg/ml)	SS (SS indicates solubility ≥ 1mg/ml)	SS (SS indicates solubility ≥ 1mg/ml)	SS (SS indicates solubility ≥ 1mg/ml)	SS (SS indicates solubility ≥ 1mg/ml)
CC[C@H](C)[C@@H](C(=O)N[C@@H](CC(C)C)C(=O)N[C@@H](CO)C(=O)N[C@@H](CO)C(=O)N[C@H](C(=O)N[C@@H](CC(N)=O)C(=O)N[C@H](C(=O)NCC(=O)N[C@@H](CO)C(=O)N[C@@H](CC(N)=O)C(=O)N[C@H](C(=O)N1CCC[C@H]1C(N)=O)[C@@H](C)O)C(C)C)[C@@H](C)O)N(C)C(=O)[C@H](C)NC(=O)CN(C)C(=O)[C@H](Cc1ccccc1)NC(=O)[C@H](CC(N)=O)NC(=O)[C@H](CC(N)=O)NC(=O)[C@H](CO)NC(=O)[C@H](CO)NC(=O)[C@H](CCCNC(=N)N)NC(=O)[C@H](Cc1c[nH]cn1)NC(=O)[C@H](CC(C)C)NC(=O)[C@H](Cc1ccccc1)NC(=O)[C@H](CCC(=O)O)NC(=O)[C@H](C)NC(=O)[C@H](CC(C)C)NC(=O)[C@H](CCCNC(=N)N)NC(=O)[C@H](CCC(N)=O)NC(=O)[C@@H](NC(=O)[C@H](C)NC(=O)[C@@H]1CSSC[C@H](NC(=O)[C@H](CCCNC(=N)N)NC(=O)CC[C@H](NC(=O)CCCCCCCCCCCCCCCCC(=O)O)C(=O)O)C(=O)N[C@@H](CC(N)=O)C(=O)N[C@@H]([C@@H](C)O)C(=O)N[C@@H](C)C(=O)N[C@@H]([C@@H](C)O)C(=O)N1)[C@@H](C)O [Compound 89, [17CD]-isoGlu-RC()NTATC()ATQRLAEFLHRSSNNF-Gly(Me)-A-Ile(Me)-LSSTNVGSNTP-NH2] ({C18 diacid-γGlu}-RCNTATCATQRLAEFLHRSSNNF[Sar]A[NMeI]LSSTNVGSNTP-NH2; disulfide 2-7)	0.054 nM	SS (SS indicates solubility ≥ 1mg/ml)	SS (SS indicates solubility ≥ 1mg/ml)	SS (SS indicates solubility ≥ 1mg/ml)	SS (SS indicates solubility ≥ 1mg/ml)	SS (SS indicates solubility ≥ 1mg/ml)	SS (SS indicates solubility ≥ 1mg/ml)	SS (SS indicates solubility ≥ 1mg/ml)
